pKi: −log10 of the molar value.
Tests used:
α1-adrenergic receptor = α1-adrenergic receptor binding ([3H] prazosin binding site); settings: calf cerebral cortex
Protocol: Extent of binding to the α1 -adrenergic receptor was determined by the method of Greengrass and Bremner, Eur. J. Pharmacol., 55, 323 (1979) and is expressed in Table II as Ki, representing the affinity of each compound for the [^3 H] prazosin binding site in calf cerebral cortex.

α2-adrenergic receptor = format: binding, calf; settings: for α1/α2 (ratio of Ki): Ki α1 / Ki α2, calf cerebral cortex; for pKi: [3H] clonidine binding site, calf cerebral cortex
[1] = tested on: α1- or α2-adrenergic receptors; settings: cited from earlier work
norepinephrine reuptake = settings: cited from earlier work
[2] = tested on: locomotor depressant effects of methyldopa; settings: rats; cited from earlier work
[3] = tested on: clonidine-induced sedation; settings: man; cited from earlier work
[4] = tested on: sedation produced by clonidine; settings: in vivo; cited from earlier work

Compound | pKi (α1-adrenergic receptor) | α1/α2 (ratio of Ki) (α2-adrenergic receptor) | pKi (α2-adrenergic receptor) | also measured
c1ccc(N2CCNCC2)nc1 [Compound 4] | 5.62 | 65 | 7.43 | 
CN1CCN(c2ncccc2Cl)CC1 [Compound 7] | 6.67 |  | 8.57 | 
CN1CCN(c2ncccc2Br)CC1 [Compound 2] | 6.80 | 55 | 8.54 | 
CN1CCN2c3ccccc3Cc3ccccc3C2C1 (centres unmarked) [Mianserin] |  |  |  | blockade of α2-adrenergic receptors [1]: blocks α2 -adrenergic receptors; selectivity for α1- or α2-adrenergic receptors ([1]; in vivo blockade suggested at about the same dose): fails to exhibit any important selectivity; in vivo norepinephrine reuptake inhibiting properties (norepinephrine reuptake): minimal
FC(F)(F)c1cccnc1N1CCNCC1 [Compound 3] | 5.55 | 29 | 7.01 | 
COC(=O)[C@@H]1[C@H]2C[C@H]3c4[nH]c5ccccc5c4CCN3C[C@@H]2CC[C@@H]1O [yohimbine] |  |  |  | effect on locomotor depressant effects of methyldopa [2]: antagonizes; effect on clonidine-induced sedation [3]: reduce clonidine-induced sedation in man; effect on sedation produced by clonidine [4]: antagonizes the sedation produced by clonidine
Cl.Cl.Ic1cccnc1N1CCNCC1 [Compound 1, 1-(3-Iodo-2-pyridinyl)piperazine Dihydrochloride] | 5.80 | 38 | 7.38 | 
CN1CCN(c2ncccc2F)CC1 [Compound 6] | 6.31 | 98 | 8.30 | 
O=[N+]([O-])c1cccnc1N1CCNCC1 [Compound 5, 1-(3-Nitro-2-pyridinyl)piperazine] | 5.42 | 146 | 7.59 | 
